Results as given in patent US20030199449A1, “Combination of ablation and controlled drug delivery for the treatment of cancer” (priority 2002, published 2003).

Columns and labels:
VX-2 tumor = assay: 5-FU rods plus radio-frequency ablation in VX-2 tumors in the liver of rabbits, tumor volume; format: in vivo, New Zealand white rabbits
Procedure: (§1) Male New Zealand white rabbits (−3 kg) were used and were cared for in accordance with the Case Western Reserve University animal research center regulations. The rabbits were anesthetized using a combination of xylazine (5 mg/kg body weight BW) and ketamine (50 mg/kg BW), acepromazine (2 mg/kg), and atropine (0.2 mg/kg) given by i.m. injection. The abdomen was shaved and cleaned with povidone-iodine solution (Betadine) and 0.5 ml of Marcaine was administered into the skin at the incision site. A small midline incision was made and the medial lobe of the liver was exposed and exteriorized. The capsule of the medial lobe was punctured with a scalpel blade and a small piece of VX-2 tumor (1 mm^3), which was propagated in another rabbit and stored in liquid nitrogen for later use, was inserted into the liver parenchyma. A small piece of fat was sutured over the implant site. The abdominal muscles were closed with suture and the skin was closed with subcutaneous hidden sutures. During the recovery period, all animals received buprenophrine (Buprenex, 0.5 mg/kg, i.m.), soon after surgery and once again 24 hrs later for pain. If the animals were later perceived to be in pain, additional buprenophrine was given as needed. The rabbits also received a subcutaneous injection of 25 ml of 0.9% saline during recovery and 24 hrs later.
Fourteen days after tumor implantation, the rabbits were anesthetized again using the protocol given above. The medial lobe of the liver was exteriorized and examined for tumor growth. The size of the tumor was approximately 0.5-1.0 cm in diameter and extended into the liver parenchyma. Before radio frequency ablation, a grounding pad was placed under the exteriorized medial lobe of the liver. […]
Tumor volumes after 28 days of growth, calculated from the digital photographs as well as the integration of the CT slices though the tumors of each rabbit, are given in the table below: […]

[1] = In-vitro release of 5-FU from poly(CPP:SA) implants; format: physicochemical; conditions: 37° C., 120 rpm
Procedure: The drug 5-fluorouracil was analyzed by HPLC using a Regis C-18 reverse phase column. The mobile phase was deionized water at a flow rate of 0.6 ml/min and the injection volume was10 μl. The detector was set to monitor 266 nm. Calibration standards for the method were prepared as follows: A mass of 13 mg of 5-FU was dissolved in deionized water in a 50 ml volumetric flask to make a 2.00 mM stock solution. Sequential dilutions of the stock solution give standard solutions of 1.00, 0.200, 0.0500, 0.0100 and 0.00100 mM, respectively. The standards for the metabolite 5-FUR were similarly prepared at the concentrations of 2.00, 1.00, 0.200, 0.0500, 0.0100 and 0.00100 mM, respectively. The HPLC peak area of 5-FU and 5-FUR varied linearly with concentrations in the standard test range of 0.001-2 mM.
To measure in-vitro drug release of 5-F U from the implants, solid samples were pre-weighed and placed in a sterile 50-ml conical tubes filled with 20 ml of either phosphate buffered saline (PBS) or fetal bovine serum (FBS). The tubes were placed on the Gyromax 929 shaker adjusted to 37° C. and 120 rpm. Periodically, 0.1 ml of the solutions was transferred into a vial and diluted 20 times with deionized water. Aliquots of 0.1 ml of fresh PBS or FBS was added to the conical tubes each time to maintain a constant volume. […]

neoplastic tissue = conditions: reported; cited from earlier work
[2] = Body weight change after RFA plus 5-FU rods in VX-2 tumor rabbits; format: in vivo, New Zealand white rabbits; conditions: RFA plus 5-FU subgroup, last 14 days following RFA
Procedure: as §1, with “later. […]” for “later.”

[3] = Local drug concentration distribution in normal (unablated) rat liver after implantation of 5-FU rod; conditions: 24 h, insertion point vs periphery
in vivo = conditions: RF ablated liver; for concentration at 24 h: male, Sprague Dawley, rat, in vivo, 5-FU concentration in liver tissue
Excerpt: The medial lobe of each liver was exposed through a small midline incision.
For the ablation procedure, the livers were placed on a wire mesh grounding pad and a saline soaked sponge. Ablation was accomplished using a 200-W radiofrequency generator (model CTRF-A, Radionics, Burlington, Mass.) using a 19-gauge needle electrode (model PE-D(10)(2) Radionics , Burlington, Mass.). Ablation was initiated by inserting the needle electrode into a needle tract made with a 23-gauge needle in the center of the lobe. The electrode was inserted to a depth of approximately 8-mm. The hepatic tissue exposed to the radiofrequency current was raised to a temperature of 90° C. for 3 min. […] After the electrode was removed, a 5-FU rod was placed in the probe tract and a fat pad was sewn over the top.

[4] = ablation + three 5-FU rods at day 14, after 28 days of growth, N = 4

SMILES	reduction in tumor size (VX-2 tumor; ablation + local sustained release 5-FU vs ablation only) [%]	Tumor Volumes, mean (1 SD), CT Scan (VX-2 tumor; [4])	Tumor Volumes, mean (1 SD), Digital Photography (VX-2 tumor; [4])	time to release 75% of the 5-FU from implant ([1]; FBS) [days]	time to release 75% of the 5-FU from implant ([1]; PBS) [days]	level in neoplastic tissue sufficient for a clinical effect (neoplastic tissue) [µg/g]	increase in body weight [2] [%]	spatial distribution in normal (unablated) liver [3]	concentration at 24 h (in vivo; between 6 and 18 mm away from the ablation center) [ng/g]	concentration at 24 h (in vivo; within 24 h, immediate vicinity of the ablation site (~6 mm radius)) [ng/g]	spatial distribution in ablated liver (in vivo; 5-FU rod in probe tract, 24 h and 48 h)
O=c1[nH]cc(F)c(=O)[nH]1 [5-FU, 5-fluorouracil]	~50	1.71 (0.56) cm^3	1.24 (0.55) cm^3	2	9	0.05	2	essentially the same throughout the whole liver	~12000	≤ 41000	
O=c1[nH]c(=O)n([C@H]2C[C@H](O)[C@@H](CO)O2)cc1F [5-FUR, 5-floxuridine]											contains less 5-FUR than that further away from the ablation site
